From patent publication US8048895B2, “Kappa opioid receptor ligands” (priority 2008, dated 2011)

Legend:
Type in all cases: biochemical
[1] = biological target: T1, cloned human κ opioid receptor (Homo sapiens, UniProt P41145); experiment: Inhibition of U69,593-stimulated [35S]GTPγS binding
T1 construct: expressed in transfected cells
Excerpt: (§1) Measures of opioid receptor antagonism and specificity were obtained by monitoring the ability of selected test compounds to inhibit stimulation of [^35S]GTPγS binding produced by the selective agonists (D-Ala^2, MePhe^4, Gly-ol^5)enkephalin (DAMGO, mu receptor), cyclo[D-Pen^2, D-Pen^5]enkephalin (DPDPE, delta) and 5,7,8-(−)-N-methyl-N-[7-(1-pyrrolidinyl)-1-oxaspiro[4,5]dec-8-yl]benzeneacetamide (U69,593, kappa) in cloned human receptors, Table 1.

[2] = biological target: T2, cloned human δ opioid receptor (Homo sapiens, UniProt P41143); experiment: Inhibition of DPDPE-stimulated [35S]GTPγS binding; settings: read-out: δ, DPDPE Ke
T2 construct: expressed in transfected cells
Excerpt: as §1

[3] = biological target: T3, cloned human μ opioid receptor (Homo sapiens, UniProt P35372); experiment: Inhibition of DAMGO-stimulated [35S]GTPγS binding
T3 construct: expressed in transfected cells
Excerpt: as §1

T1 sequence (P41145 whole entry): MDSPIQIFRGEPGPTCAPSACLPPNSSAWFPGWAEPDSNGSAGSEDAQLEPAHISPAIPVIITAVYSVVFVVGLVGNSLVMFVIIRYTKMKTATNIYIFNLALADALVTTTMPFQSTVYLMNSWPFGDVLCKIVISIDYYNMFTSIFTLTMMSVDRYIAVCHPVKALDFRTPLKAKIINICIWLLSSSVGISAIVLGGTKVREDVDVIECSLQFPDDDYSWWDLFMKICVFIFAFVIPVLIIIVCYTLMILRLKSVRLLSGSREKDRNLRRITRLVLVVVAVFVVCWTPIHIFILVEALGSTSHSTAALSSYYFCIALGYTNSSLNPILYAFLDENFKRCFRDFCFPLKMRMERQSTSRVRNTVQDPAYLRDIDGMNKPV
T3 sequence (P35372 whole entry): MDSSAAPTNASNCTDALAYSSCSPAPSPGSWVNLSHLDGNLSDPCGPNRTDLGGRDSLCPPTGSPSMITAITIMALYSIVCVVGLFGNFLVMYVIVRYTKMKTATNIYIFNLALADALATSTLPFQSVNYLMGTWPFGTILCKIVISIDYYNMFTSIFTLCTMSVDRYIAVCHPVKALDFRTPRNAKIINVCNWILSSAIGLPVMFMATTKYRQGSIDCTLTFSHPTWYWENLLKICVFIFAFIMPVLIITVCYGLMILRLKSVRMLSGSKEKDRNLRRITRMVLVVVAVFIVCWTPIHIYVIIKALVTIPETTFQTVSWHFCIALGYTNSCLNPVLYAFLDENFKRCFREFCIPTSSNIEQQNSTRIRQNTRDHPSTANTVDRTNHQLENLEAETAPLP
T2 sequence (P41143 whole entry): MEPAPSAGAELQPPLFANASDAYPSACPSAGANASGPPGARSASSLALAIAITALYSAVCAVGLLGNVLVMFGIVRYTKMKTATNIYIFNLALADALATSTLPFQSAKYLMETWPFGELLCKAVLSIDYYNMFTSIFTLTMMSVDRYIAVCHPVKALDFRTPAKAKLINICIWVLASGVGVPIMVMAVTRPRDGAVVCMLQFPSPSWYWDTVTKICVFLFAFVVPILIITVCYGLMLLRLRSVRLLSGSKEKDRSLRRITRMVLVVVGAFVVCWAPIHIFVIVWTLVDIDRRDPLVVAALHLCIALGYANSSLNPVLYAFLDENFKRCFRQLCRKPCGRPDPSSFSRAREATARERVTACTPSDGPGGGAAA

Q: What does the source list for `CC(C)[C@@H](CN1CC[C@@](C)(c2cccc(O)c2)[C@@H](C)C1)NC(=O)[C@@]1(C)Cc2ccc(O)cc2CN1` [RTI-5989-240, (3R)-7-Hydroxy-N-[(1S)-1-{[(3R,4R)-4-(3-hydroxyphenyl)-3,4-dimethylpiperidin-1-yl]methyl}-2-methylpropyl]-3-methyl-1,2,3,4-tetrahydroisoquinoline-3-carboxamide]?
A: Kb [1]: 0.03 nM; potency for the kappa opioid receptor (in words) ([1]; [35S]GTPγS in vitro functional assay): high potency; selectivity for the kappa opioid receptor relative to mu and delta (in words) ([1]; functional assay): highly selective; κ, U69,593 Ke ([1]; inhibition of U69,593-stimulated [35S]GTPγS binding, cloned human κ receptor): 0.03 nM; δ/κ ([1]; ratio of Ke values, δ over κ): 28,000; μ/κ ([1]; ratio of Ke values, μ over κ): 120; Kb [2]: 840 nM; Kb [3]: 3.6 nM; μ, DAMGO Ke ([3]; inhibition of DAMGO-stimulated [35S]GTPγS binding, cloned human μ receptor): 3.6 nM
